ChEMBL document CHEMBL1201862, “PubChem BioAssay data set” (2004)
One block for each compound: values may come before it. Active and inactive are the calls of the source.

Key:
[1] = viability loss in HepG2 hepatoma cells – cell-based, ATP luminescence, cherry-pick, activator set 2, cytotoxicity control, dose response (AID 1053143); format: functional
[2] = system: Streptococcus sp. 'group A'; test: Streptococcus pyogenes SK(-)GAS viability under kanamycin – luminescence, BacTiterGlo, confirmation, counter-screen for streptokinase expression inhibitor project, dose response (AID 1900); format: functional, organism-based
[3] = molecular target: Induced myeloid leukemia cell differentiation protein Mcl-1 (Homo sapiens, UniProt Q07820); format: functional
Streptococcus = test: GAS UMAA2166 growth inhibition – luminescence, BacTiterGlo, counter-screen for streptokinase expression inhibitor project, dose response (AID 1915); format: functional, organism-based;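 also: potency for reduction of bacterial viability or growth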
[4] = HGIII-sPLA2 enzyme inhibition potency – biochemical, QFRET, IC50, dose response (AID 743457);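 also: green fluorescence rise as the enzyme cleaves BODIPY PC-A2 in liposomes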
[5] = molecular target: Delta-type opioid receptor (Homo sapiens, UniProt P41143); test: Counterscreen for agonists of heterodimerization of the mu 1 (OPRM1) and delta 1 (OPRD1) opioid receptors: Luminescence-based cell-based high throughput dose response assay to identify agonists of OPRD1 homodimerization. [Related pubchem assays (depositor defined):AID504326, AID504355, AID504692, AID504904, AID504905]; format: functional
Mu-type opioid receptor = Mu-type opioid receptor (Homo sapiens, UniProt P35372); test: Counterscreen for agonists of heterodimerization of the mu 1 (OPRM1) and delta 1 (OPRD1) opioid receptors: Luminescence-based cell-based high throughput dose response assay to identify agonists of OPRM1 homodimerization.; format: functional;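 also: U2OS cells expressing OPRM1 and beta-arrestin as split beta-galactosidase partners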
[6] = molecular target: 5-hydroxytryptamine receptor 5A (Homo sapiens, UniProt P47898); test: Counterscreen for agonists of OPRM1-OPRD1 heterodimerization: luminescence-based cell-based high throughput dose response assay to identify agonists of 5-hydroxytryptamine (serotonin) 5A receptor (HTR5A). [Related pubchem assays (depositor defined):AID504326, AID504355, AID504692, AID504904, AID504905]; format: functional
[7] = Fluorescence-based cell-based high throughput dose response assay for inhibitors of the interaction of nucleotide-binding oligomerization domain containing 2 (NOD2) and the receptor-interacting serine-threonine kinase 2 (RIPK2).; format: functional; settings: Homo sapiens
Beta Lactamase = Beta Lactamase (Pseudomonas aeruginosa, UniProt Q932Y6); test: BLA reporter interference, concentration series – BLA reporter cells, FRET fluorescence, artefact control for NOD2-RIPK2 interaction inhibitor project, dose response (AID 651552); format: functional, cell-based
[8] = activation of miR-122 Renilla sensor silencing – cell-based, Huh7 psiCHECK-miR122, Renilla luciferase, cherry-picked, dose response (AID 651956); format: functional;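 also: huh7 hepatoma cells stably carrying a psiCHECK-2 miR-122 sensor plasmid; renilla luciferase signal reporting endogenous miR-122 activity after 48 h compound exposure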
[9] = viability loss in HeLa cells – cytotoxicity control for MgcRacGAP inhibitor project, dose response (AID 624300); format: functional
[10] = molecular target: T1, Rac GTPase-activating protein 1 (Homo sapiens, UniProt Q9H0H5); test: blockers of MgcRacGAP-driven Rac1 GTP hydrolysis – biochemical, ADP Hunter fluorescence, primary and confirmatory, confirmation (AID 624330); format: functional
T1 sequence (Q9H0H5 whole entry): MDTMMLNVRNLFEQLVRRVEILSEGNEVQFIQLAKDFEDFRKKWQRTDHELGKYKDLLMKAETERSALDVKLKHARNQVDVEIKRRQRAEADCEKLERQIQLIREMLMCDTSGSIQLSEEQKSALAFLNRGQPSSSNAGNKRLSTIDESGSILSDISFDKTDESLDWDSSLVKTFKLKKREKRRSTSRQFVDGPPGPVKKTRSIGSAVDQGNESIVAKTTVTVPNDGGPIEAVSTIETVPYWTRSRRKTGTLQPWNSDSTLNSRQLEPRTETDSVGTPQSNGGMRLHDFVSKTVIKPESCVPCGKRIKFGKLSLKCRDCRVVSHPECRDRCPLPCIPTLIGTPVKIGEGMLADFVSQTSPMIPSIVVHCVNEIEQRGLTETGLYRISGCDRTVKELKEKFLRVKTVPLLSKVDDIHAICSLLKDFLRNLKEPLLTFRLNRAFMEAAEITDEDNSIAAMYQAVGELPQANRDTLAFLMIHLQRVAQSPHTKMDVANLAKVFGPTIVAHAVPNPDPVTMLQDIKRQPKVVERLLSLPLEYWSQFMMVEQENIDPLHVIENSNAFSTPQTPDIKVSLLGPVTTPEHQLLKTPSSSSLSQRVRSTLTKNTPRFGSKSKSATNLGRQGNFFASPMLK

[11] = molecular target: E3 ubiquitin-protein ligase UHRF1 (Homo sapiens, UniProt Q96T88); test: Counterscreen for inhibitors of 5-meCpG-binding domain protein 2 (MBD2): TRFRET-based biochemical high throughput dose response assay to identify inhibitors of binding of ubiquitin-like with PHD and ring finger domains 1 (UHRF1) to methylated oligonucleotide.
[12] = general mammalian cell viability loss – inhibitor set, cherry-pick, set 2, cytotoxicity control for miR-122 modulator project, dose response (AID 720697); format: functional, cell-based
[13] = molecular target: NAD-dependent protein deacylase sirtuin-5, mitochondrial (Homo sapiens, UniProt Q9NXA8); test: sirtuin-5 deacylation blockers, concentration series – biochemical, fluorescence imaging, cherry-pick, set 5, dose response (AID 720591);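 also: desuccinylation of succinyl peptide AMC substrate read as fluorescence after trypsin release; potency of inhibitors that lower fluorescence and may act on trypsin instead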
Paired box protein Pax-8 = Paired box protein Pax-8 (Homo sapiens, UniProt Q06710); test: PAX8 transcriptional activity inhibition in RMG-I – RMG-I cells, luciferase, cherry-pick, dose response (AID 687027); format: functional, cell-based;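 also: luciferase reporter driven by Pax8 target thyroperoxidase promoter measured by SteadyGlo luminescence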
[14] = general cell-killing toxicity readout – plate reader, dry powder samples, cytotoxicity control for PAX8 inhibitor project, dose response (AID 743021); format: functional, cell-based
[15] = OVCAR-3 cell viability loss – plate reader, dry powder samples, PAX8 inhibitor project, dose response (AID 743044); format: functional, cell-based
[16] = IGROV1 cell killing – plate reader, dry powder samples, PAX8 inhibitor project, dose response (AID 743043); format: functional, cell-based; settings: IGROV-1
[17] = OVCAR8 cell viability loss – plate reader, dry powder samples, PAX8 project, dose response (AID 743197); format: functional, cell-based; settings: OVCAR-8

Paired box protein Pax-8, sequence (Q06710 whole entry): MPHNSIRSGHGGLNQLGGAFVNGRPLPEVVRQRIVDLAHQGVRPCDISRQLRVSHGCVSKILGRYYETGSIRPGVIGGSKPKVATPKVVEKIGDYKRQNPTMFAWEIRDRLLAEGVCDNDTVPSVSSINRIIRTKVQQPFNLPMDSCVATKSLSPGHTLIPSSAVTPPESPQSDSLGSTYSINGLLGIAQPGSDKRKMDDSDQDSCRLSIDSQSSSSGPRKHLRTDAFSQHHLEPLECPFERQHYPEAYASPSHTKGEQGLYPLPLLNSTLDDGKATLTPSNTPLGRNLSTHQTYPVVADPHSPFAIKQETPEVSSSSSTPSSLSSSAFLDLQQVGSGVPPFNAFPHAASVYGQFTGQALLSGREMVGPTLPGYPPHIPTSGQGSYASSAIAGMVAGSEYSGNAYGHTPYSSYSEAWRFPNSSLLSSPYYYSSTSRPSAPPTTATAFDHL
Beta Lactamase, sequence (Q932Y6 whole entry): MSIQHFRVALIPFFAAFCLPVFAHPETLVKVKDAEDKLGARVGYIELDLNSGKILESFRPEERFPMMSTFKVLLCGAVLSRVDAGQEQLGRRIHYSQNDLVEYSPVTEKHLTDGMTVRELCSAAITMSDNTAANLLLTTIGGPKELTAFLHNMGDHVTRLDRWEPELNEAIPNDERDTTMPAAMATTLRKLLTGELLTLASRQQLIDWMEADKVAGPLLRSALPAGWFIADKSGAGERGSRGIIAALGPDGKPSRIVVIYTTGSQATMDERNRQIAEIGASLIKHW
Induced myeloid leukemia cell differentiation protein Mcl-1, sequence (Q07820 whole entry): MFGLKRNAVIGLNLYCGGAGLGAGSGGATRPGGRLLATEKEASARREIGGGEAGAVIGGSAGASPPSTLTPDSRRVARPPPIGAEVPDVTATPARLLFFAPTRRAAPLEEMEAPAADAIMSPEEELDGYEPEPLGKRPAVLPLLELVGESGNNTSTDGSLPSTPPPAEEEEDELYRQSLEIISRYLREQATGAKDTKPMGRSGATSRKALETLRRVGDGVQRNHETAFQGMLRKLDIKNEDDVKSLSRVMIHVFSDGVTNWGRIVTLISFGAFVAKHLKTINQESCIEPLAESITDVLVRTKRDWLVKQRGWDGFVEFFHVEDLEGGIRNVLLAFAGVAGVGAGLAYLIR
Mu-type opioid receptor, sequence (P35372 whole entry): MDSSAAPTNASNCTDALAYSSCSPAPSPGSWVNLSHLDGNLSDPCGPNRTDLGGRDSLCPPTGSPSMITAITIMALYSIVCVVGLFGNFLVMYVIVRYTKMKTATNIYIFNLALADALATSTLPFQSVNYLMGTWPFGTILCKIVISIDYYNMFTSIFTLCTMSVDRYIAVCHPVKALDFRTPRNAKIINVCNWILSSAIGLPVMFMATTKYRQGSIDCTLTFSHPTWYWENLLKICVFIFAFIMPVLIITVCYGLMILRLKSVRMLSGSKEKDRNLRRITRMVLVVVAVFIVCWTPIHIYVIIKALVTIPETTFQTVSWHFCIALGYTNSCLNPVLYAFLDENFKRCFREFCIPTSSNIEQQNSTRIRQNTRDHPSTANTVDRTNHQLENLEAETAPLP
E3 ubiquitin-protein ligase UHRF1, sequence (Q96T88 whole entry, the tested form may be a part): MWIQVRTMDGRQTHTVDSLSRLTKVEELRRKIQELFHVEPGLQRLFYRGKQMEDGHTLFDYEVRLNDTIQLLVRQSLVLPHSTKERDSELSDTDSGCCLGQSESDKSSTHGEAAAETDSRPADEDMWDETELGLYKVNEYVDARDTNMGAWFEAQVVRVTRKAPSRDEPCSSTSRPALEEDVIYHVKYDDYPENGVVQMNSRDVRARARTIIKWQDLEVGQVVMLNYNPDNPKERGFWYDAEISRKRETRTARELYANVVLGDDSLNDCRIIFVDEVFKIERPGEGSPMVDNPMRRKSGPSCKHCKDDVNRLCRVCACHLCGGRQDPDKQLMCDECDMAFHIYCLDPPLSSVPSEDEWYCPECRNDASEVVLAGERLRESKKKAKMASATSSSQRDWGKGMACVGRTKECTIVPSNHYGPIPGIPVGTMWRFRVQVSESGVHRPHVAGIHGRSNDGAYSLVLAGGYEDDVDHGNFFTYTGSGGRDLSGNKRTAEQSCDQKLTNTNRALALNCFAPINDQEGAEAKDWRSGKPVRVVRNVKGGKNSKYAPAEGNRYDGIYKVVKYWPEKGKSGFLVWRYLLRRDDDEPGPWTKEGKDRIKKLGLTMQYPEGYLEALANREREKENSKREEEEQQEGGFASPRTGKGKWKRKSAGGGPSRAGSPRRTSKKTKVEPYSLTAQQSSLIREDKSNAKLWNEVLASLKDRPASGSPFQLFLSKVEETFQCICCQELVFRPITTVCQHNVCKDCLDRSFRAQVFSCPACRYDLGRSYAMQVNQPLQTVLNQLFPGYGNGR
5-hydroxytryptamine receptor 5A, sequence (P47898 whole entry, the tested form may be a part): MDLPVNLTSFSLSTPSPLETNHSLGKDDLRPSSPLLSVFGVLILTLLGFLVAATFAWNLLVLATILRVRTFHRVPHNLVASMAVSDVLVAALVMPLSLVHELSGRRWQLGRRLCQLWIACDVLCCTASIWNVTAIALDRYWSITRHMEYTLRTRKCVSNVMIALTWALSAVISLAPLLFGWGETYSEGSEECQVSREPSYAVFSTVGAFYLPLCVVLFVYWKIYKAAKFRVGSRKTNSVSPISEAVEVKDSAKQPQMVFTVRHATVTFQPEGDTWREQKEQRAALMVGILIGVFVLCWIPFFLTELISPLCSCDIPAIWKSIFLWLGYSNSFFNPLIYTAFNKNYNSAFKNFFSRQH
NAD-dependent protein deacylase sirtuin-5, mitochondrial, sequence (Q9NXA8 whole entry): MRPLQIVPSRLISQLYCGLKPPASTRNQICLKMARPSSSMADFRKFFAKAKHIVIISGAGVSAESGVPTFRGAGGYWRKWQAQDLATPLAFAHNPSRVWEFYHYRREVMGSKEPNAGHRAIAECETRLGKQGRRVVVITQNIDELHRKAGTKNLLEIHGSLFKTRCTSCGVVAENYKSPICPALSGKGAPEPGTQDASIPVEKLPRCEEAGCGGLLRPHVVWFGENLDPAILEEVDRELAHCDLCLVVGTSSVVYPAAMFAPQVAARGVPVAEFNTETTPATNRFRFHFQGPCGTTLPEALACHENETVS
Delta-type opioid receptor, sequence (P41143 whole entry): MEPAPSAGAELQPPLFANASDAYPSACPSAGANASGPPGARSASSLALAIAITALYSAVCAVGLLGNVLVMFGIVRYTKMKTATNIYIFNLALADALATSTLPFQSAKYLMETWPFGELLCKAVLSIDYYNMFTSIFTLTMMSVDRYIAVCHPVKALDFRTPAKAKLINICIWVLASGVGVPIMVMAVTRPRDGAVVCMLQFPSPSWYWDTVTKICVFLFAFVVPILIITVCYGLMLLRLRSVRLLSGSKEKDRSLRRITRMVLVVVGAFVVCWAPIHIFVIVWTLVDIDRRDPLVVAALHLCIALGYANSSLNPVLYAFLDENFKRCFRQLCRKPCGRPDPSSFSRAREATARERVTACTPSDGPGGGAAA

Structure (SMILES): O=C(Nc1ccc(F)cc1)c1ccc2nsnc2c1
AC50 [1]: > 52 µM (inactive)

Structure (SMILES): Cc1cccc(C(=O)NC(=S)NNC(=O)c2ccc(Cl)cc2)c1
EC50 [2]: 0.362 µM (active) | IC50 [3]: 25.8 µM (not active) | EC50 (Streptococcus): 1.09 µM (active) | IC50 [4]: 21.9 µM (inactive)

Structure (SMILES): Cc1cc2[nH]c3c4ccccc4nc(C)c3c2cc1C
EC50 [5]: > 92.4 µM (inactive) | EC50 (Mu-type opioid receptor): > 92.4 µM (inactive) | EC50 [6]: > 92.4 µM (inactive) | IC50 [7]: 15.5 µM (inactive) | IC50 (Beta Lactamase): 23.6 µM (inactive) | AC50 [8]: 10.8 µM (active) | CC50 [9]: 12.4 µM (active) | IC50 [10]: 38.9 µM (active) | IC50 [11]: 19 µM (inactive) | AC50 [12]: 3.57 µM (active)

AC50 [13]: > 30 µM (inactive)
Structure (SMILES): Cc1noc(C)c1NC(=O)N(C)C[C@@H]1Oc2cc(Br)ccc2S(=O)(=O)N([C@@H](C)CO)C[C@H]1C

Structure (SMILES): COc1ccc(S(=O)(=O)Nc2ccc3c(c2)C(=O)N([C@@H](C)CO)C[C@@H](C)[C@H](CN(C)Cc2ccc(C(F)(F)F)cc2)OCCCC[C@H](C)O3)cc1
AC50 (Paired box protein Pax-8): 10.8 µM (active) | AC50 [14]: 45.4 µM (active)

Structure (SMILES): COc1ccc(CN(C)C[C@H]2OCCCC[C@H](C)Oc3ccc(NC(=O)Nc4ccc(C(F)(F)F)cc4)cc3C(=O)N([C@H](C)CO)C[C@H]2C)cc1
AC50 (Paired box protein Pax-8): 9.16 µM (active) | AC50 [15]: 26.4 µM (active) | AC50 [16]: 54.7 µM (active) | AC50 [17]: 59 µM (active)
